Reference: US12479830B2, “Homopiperazinyl and homopiperidinyl quinazolin-4(3H)-one derivatives having multimodal activity against pain” (ESTEVE PHARMACEUTICALS, S.A., priority 2019, dated 2025)

How the values were obtained:
[1] = molecular target: Human α2δ-1 subunit of Cav2.2 calcium channel (Homo sapiens, UniProt P54289); test: Human α2δ-1 subunit of Cav2.2 calcium channel assay ([3H]-gabapentin binding); settings: binding to the α2δ-1 subunit of voltage-gated calcium channels, expressed as Ki class; + also covers inhibition between 1% and 50%
Chain of Human α2δ-1 subunit of Cav2.2 calcium channel (P54289 25-1103): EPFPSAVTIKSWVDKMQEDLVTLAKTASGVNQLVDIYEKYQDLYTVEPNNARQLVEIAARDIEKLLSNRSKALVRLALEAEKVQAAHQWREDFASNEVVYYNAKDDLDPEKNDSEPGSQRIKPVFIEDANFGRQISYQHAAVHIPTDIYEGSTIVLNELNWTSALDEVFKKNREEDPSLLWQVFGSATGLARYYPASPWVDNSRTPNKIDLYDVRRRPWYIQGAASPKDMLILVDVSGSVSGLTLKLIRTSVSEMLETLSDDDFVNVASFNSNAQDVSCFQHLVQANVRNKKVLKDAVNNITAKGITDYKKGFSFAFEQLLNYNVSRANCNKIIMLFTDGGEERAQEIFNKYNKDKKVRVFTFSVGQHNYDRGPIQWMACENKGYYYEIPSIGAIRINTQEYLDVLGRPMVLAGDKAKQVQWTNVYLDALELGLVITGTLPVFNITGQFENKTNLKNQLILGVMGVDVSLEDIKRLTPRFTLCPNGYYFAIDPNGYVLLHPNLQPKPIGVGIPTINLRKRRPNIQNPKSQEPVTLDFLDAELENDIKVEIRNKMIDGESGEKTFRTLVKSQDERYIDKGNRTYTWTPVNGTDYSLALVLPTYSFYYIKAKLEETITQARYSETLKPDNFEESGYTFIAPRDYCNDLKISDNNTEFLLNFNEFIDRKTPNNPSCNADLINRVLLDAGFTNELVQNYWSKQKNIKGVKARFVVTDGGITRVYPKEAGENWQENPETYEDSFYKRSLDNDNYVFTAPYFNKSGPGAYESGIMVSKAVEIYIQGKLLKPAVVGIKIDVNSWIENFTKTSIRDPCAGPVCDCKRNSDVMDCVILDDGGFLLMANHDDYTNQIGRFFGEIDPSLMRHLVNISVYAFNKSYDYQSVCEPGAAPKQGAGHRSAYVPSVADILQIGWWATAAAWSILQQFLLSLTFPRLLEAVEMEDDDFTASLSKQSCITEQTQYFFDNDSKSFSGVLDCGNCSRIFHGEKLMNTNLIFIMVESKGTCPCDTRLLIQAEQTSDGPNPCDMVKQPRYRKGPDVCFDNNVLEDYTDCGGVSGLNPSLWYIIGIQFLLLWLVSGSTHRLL
In short: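 Human α2δ-1 enriched membranes (2.5 μg) incubated 60 min at 27° C. with 15 nM [3H]-gabapentin in 10 mM Hepes-KOH pH 7.4; non-specific binding with 10 μM pregabalin. Filtration binding; % inhibition at 1 or 10 μM, or Ki from five concentrations.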

Human σ1 receptor = molecular target: T1, Human σ1 receptor (Homo sapiens, UniProt Q99720); test: Human σ1 receptor radioligand assay ([3H](+)-pentazocine binding); settings: binding to the σ1 receptor, expressed as Ki class; + also covers inhibition between 1% and 50%
T1 construct: expressed in transfected cells; host or cells: HEK-293
T1 sequence (Q99720 whole entry): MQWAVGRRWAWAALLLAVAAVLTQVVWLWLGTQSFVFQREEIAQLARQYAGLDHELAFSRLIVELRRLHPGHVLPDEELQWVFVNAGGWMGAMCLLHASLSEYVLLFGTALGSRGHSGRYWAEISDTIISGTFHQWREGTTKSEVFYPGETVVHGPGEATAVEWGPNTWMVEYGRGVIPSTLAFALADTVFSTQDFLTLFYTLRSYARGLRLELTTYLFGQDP
In short: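 Membranes (7 μg) were incubated with 5 nM [3H](+)-pentazocine in 50 mM Tris-HCl pH 8 for 120 min at 37° C. Non-specific binding was defined with 10 μM haloperidol. Values are % inhibition at 1 or 10 μM or Ki from five concentrations, read by filtration and scintillation counting.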

SMILES | Ki [1] | Ki (Human σ1 receptor)
CCC[C@@H](c1nc2ccc(Br)cc2c(=O)n1CC)N1CCCN[C@H](C)C1 [Example 141, 6-bromo-3-ethyl-2-((S)-1-((R)-3-methyl-1,4-diazepan-1-yl)butyl)quinazolin-4(3H)-one] | > 5000 nM | 500 to 1000 nM
CCCC(c1nc2ccc(Br)cc2c(=O)n1CC)N1CCCNCC1 (stereo not shown) [Example 2, 2-(1-(1,4-diazepan-1-yl)butyl)-6-bromo-3-ethylquinazolin-4(3H)-one] | < 500 nM | > 1000 nM

Second part, the compound after the results:

Ki [1] | Ki (Human σ1 receptor) | SMILES
< 500 nM | > 1000 nM | CCCC(c1nc2cc(C)ccc2c(=O)n1CC)N1CCCN(C)CC1 (stereo not shown) [Example 11, 3-ethyl-7-methyl-2-(1-(4-methyl-1,4-diazepan-1-yl)butyl)quinazolin-4(3H)-one]
< 500 nM | < 500 nM | CCCCn1c([C@@H](CCC)N2CCCN(CC)CC2)nc2ccc(F)cc2c1=O [Example 225, (R)-3-butyl-2-(1-(4-ethyl-1,4-diazepan-1-yl)butyl)-6-fluoroquinazolin-4(3H)-one]
< 500 nM | 500 to 1000 nM | CCC[C@H](c1nc2ccc(Cl)cc2c(=O)n1CC)N1CCN(C)C[C@@H](C)C1 [Example 76, 6-chloro-2-((R)-1-((R)-4,6-dimethyl-1,4-diazepan-1-yl)butyl)-3-ethylquinazolin-4(3H)-one]
